Measurements from US20040214832A1, “Piperazine derivative renin inhibitors” (priority 2003, published 2004).

Target: T1, human renin (Homo sapiens, UniProt P00797)
T1 sequence (P00797 67-406): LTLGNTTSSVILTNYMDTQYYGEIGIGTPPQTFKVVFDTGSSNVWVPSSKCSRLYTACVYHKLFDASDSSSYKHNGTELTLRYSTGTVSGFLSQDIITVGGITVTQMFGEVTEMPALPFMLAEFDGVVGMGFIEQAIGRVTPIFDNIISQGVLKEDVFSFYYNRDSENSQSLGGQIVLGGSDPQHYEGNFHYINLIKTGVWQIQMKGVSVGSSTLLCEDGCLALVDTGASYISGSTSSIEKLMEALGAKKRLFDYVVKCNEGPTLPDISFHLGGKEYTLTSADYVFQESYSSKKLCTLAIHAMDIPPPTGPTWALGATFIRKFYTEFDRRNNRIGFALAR
Assay: Determination of renin IC50 by tGFP FRET assay
Assay type: biochemical
Conditions: Human recombinant renin, tandem GFP substrate 650 nM, 60 min incubation with compound, pH 7.4, 11-point curve
From the text: Determination of Renin IC50 by tGFP FRET Assay
The tGFP FRET (fluorescence resonance energy transfer) assay utilizes a tandem GFP substrate (60 kDa, Discovery Technologies) containing nine amino acid recognition sequences for human renin flanked by two GFP proteins. The assay is used to determine the ability of a compound to act as an inhibitor of renin enzymatic activity by determination of that concentration of test compound that inhibits by 50% (IC50) the ability of renin to cleave the tandem GFP substrate. The IC50 values are determined over an 11-point curve at concentrations of 100 μM to 1 pM. Each compound concentration used to construct the curve was dependent on renin inhibitor potency. For example, subnanomolar IC50 values were determined over an 11-point curve at concentrations of 10 μM to 1 pM. All other IC50 values were determined over an 11-point curve at concentrations of 100 μM to 0.0065 μM. The concentrations were achieved by diluting a 9.1 nM stock of Human recombinant renin in the appropriate amount of buffer containing 50 mM HEPES, 1 mM EDTA, 1% PEG (8000 MW), 1 mM DTT, 0.1% BSA, pH 7.4 to achieve the final concentration of 50.4 μIU. The tGFP substrate stock solution of 43 μM was diluted with the appropriate amount of the above buffer to obtain the final concentration of 650 nM. In addition, 1 μl of the compound is diluted in dimethylsulfoxide (DMSO) to represent an […] log scale (5% final). The SR renin and compound are added to a 384 capacity plate by an automated robot (BIOMEK). The plate is incubated for 60 minutes; upon completion the tGFP substrate is added.
The IC50 is determined by monitoring the increase in […] at 432/432 nm excitation, 530/475 nm emission with a cutoff at 515/455 nm, in a fluorometric plate reader.

`COc1ccccc1COCCCOc1ccc(N2C(=O)CNC[C@@H]2COc2ccc3c(ccn3CCNC(C)=O)c2)cc1` [Example 120, N-{2-[5-([2R]-1-{4-[3-(2-Methoxybenzyloxy)-propoxy]-phenyl}-6-oxopiperazin-2-ylmethoxy)-indol-1-yl]-ethyl}-acetamide] gave an IC50 of 0.00466 µM.

`COc1ccc(COC[C@H]2CNCCN2c2ccc(OCCCOCc3ccccc3Cl)cc2)cc1` [Example 66, (2R)-1-{4-[3-(2-chlorobenzyloxy)-propoxy]-phenyl}-2-(4-methoxybenzyloxymethyl)-piperazine] showed an IC50 of 15.9 µM.

With `COc1ccccc1COCCCOc1ccc(N2C(=O)CNC[C@@H]2COCc2ccccc2F)cc1` [Example 3, (6R)-6-(2-fluorobenzyloxymethyl)-1-{4-[3-(2-methoxybenzyloxy)-propoxy]-phenyl}-piperazin-2-one] the IC50 was 0.225 µM.

Compound `COc1ccccc1COCCCOc1ccc(N2C(=O)CNC[C@@H]2COc2ccc3c(c2)N(CCCO)CCC3)cc1` [Example 44, (6R)-6-[1-(3-hydroxypropyl)-1,2,3,4-tetrahydroquinolin-7-yloxymethyl]-1-{4-[3-(2-methoxybenzyloxy)-propoxy]-phenyl}-piperazin-2-one] has an IC50 of 0.037 µM.

Work on `COC(=O)Cn1c(C)cc2cc(OC[C@H]3CNCC(=O)N3c3ccc(OCCCOCc4ccccc4OC)cc3)ccc21` [Example 121, [5-([2R]-1-{4-[3-(2-Methoxybenzyloxy)-propoxy]-phenyl}-6-oxopiperazin-2-ylmethoxy)-2-methyl-indol-1-yl]-acetic acid methyl ester] yielded an IC50 of 0.006 µM.

`COc1ccc(COC[C@H]2CNCC(=O)N2c2ccc(OCCCOCc3ccccc3OC)cc2)cc1` [Example 12, (6R)-6-(4-methoxybenzyloxymethyl)-1-{4-[3-(2-methoxybenzyloxy)-propoxy]-phenyl}-piperazin-2-one] was tested, and the IC50 was 3.86 µM.

Compound `Fc1ccccc1COCCCOc1ccc(N2CCNC[C@@H]2COc2ccc3ccccc3c2)cc1` [Example 87, (2R)-1-{4-[3-(2-fluorobenzyloxy)-propoxy]-phenyl}-2-(naphthalen-2-yloxymethyl)-piperazine] has an IC50 of 0.597 µM.

With `COc1ccccc1COCCOCc1ccc(N2C(=O)CNC[C@@H]2COCc2ccc(F)cc2)cc1` [Example 74, (6R)-6-(4-fluorobenzyloxymethyl)-1-{4-[2-(2-methoxybenzyloxy)-ethoxymethyl]-phenyl}-piperazin-2-one] the IC50 was 4.09 µM.

For `COC(=O)CN1C(=O)CCc2ccc(OC[C@H]3CNCC(=O)N3c3ccc(OCCCOCc4ccccc4OC)cc3)cc21` [Example 116, [7-([2R]-1-{4-[3-(2-Methoxybenzyloxy)-propoxy]-phenyl}-6-oxopiperazin-2-ylmethoxy)-2-oxo-3,4-dihydro-2H-quinolin-1-yl]-acetic acid methyl ester], the IC50 was 0.004 µM.

With `COCCCN1C(=O)CCc2ccc(OC[C@@H]3CNCC(=O)N3c3ccc(OCCCOCc4ccccc4OC)cc3)cc21` [Example 112, 7-([2S]-1-{4-[3-(2-Methoxybenzyloxy)-propoxy]-phenyl}-6-oxopiperazin-2-ylmethoxy)-1′-(3-methoxypropyl)-3,4-dihydro-1H-quinolin-2-one] the IC50 was 0.0017 µM.

`COc1ccccc1OCCCCOc1ccc(N2C(=O)CNC[C@@H]2COCc2ccc(F)cc2)cc1` [Example 71, (6R)-6-(4-fluorobenzyloxymethyl)-1-{4-[4-(2-methoxyphenoxy)-butoxy]-phenyl}-piperazin-2-one] gave an IC50 of 3.84 µM.

Work on `COc1ccccc1COCCCOc1ccc(N2C(=O)CNC[C@@H]2COCc2ccccc2Cl)cc1` [Example 14, (6R)-6-(2-chlorobenzyloxymethyl)-1-{4-[3-(2-methoxybenzyloxy)-propoxy]-phenyl}-piperazin-2-one] yielded an IC50 of 0.223 µM.

Compound `COC(=O)CCN1CCCc2ccc(OC[C@H]3CNCC(=O)N3c3ccc(OCCCOCc4ccccc4OC)cc3)cc21` [Example 122, 3-[7-([2R]-1-{4-[3-(2-Methoxybenzyloxy)-propoxy]-phenyl}-6-oxopiperazin-2-ylmethoxy)-3,4-dihydro-2H-quinolin-1-yl]-propionic acid methyl ester] has an IC50 of 0.00036 µM.

Compound `COC(=O)CN1CCCc2ccc(OC[C@H]3CNCC(=O)N3c3ccc(OCCCOCc4ccccc4OC)cc3)cc21` [Example 110, {7-[(2R)-1-{4-[3-(2-Methoxybenzyloxy)-propoxy]-phenyl}-6-oxopiperazin-2-ylmethoxy]-3,4-dihydro-2H-quinolin-1-yl}-acetic acid methyl ester] has an IC50 of 0.00409 µM.

`COc1ccccc1COCCCOc1ccc(N2CCNC[C@@H]2COCc2cccc(-c3ccccc3)c2)cc1` [Example 91, (2R)-2-(biphenyl-3-ylmethoxymethyl)-1-{4-[3-(2-methoxybenzyloxy)-propoxy]-phenyl}-piperazine] was tested, and the IC50 was 1.02 µM.

With `COc1ccccc1COCCCOc1ccc(N2C(=O)CNC[C@@H]2COCc2c(Cl)cccc2Cl)cc1` [Example 17, (6R)-6-(2,6-dichlorobenzyloxymethyl)-1-{4-[3-(2-methoxybenzyloxy)-propoxy]-phenyl}-piperazin-2-one] the IC50 was over 1 µM.

Compound `COc1ccccc1COCCCOc1c(F)cc(N2C(=O)CNC[C@@H]2COc2ccc3ccccc3c2)cc1F` [Example 43, (6R)-1-{3,5-difluoro-4-[3-(2-methoxybenzyloxy)-propoxy]-phenyl}-6-(naphthalen-2-yloxymethyl)-piperazin-2-one] has an IC50 of 0.883 µM.

For `COC(=O)CCn1ccc2cc(OC[C@H]3CNCC(=O)N3c3ccc(OCCCOCc4ccccc4OC)cc3)ccc21` [Example 119, 3-[5-([2R]-1-{4-[3-(2-Methoxybenzyloxy)-propoxy]-phenyl}-6-oxopiperazin-2-ylmethoxy)-indol-1-yl]-propionic acid methyl ester], the IC50 was 0.00162 µM.

Compound `CCOCCNC(=O)c1ccc(N2C(=O)CNC[C@@H]2COc2ccc3ccccc3c2)cc1` [Example 49, N-(2-ethoxyethyl)-4-[(2R)-2-(naphthalen-2-yloxymethyl)-6-oxopiperazin-1-yl]-benzamide] has an IC50 of over 1 µM.

Work on `COc1ccccc1COCCCOc1ccc(N2C(=O)CNC[C@@H]2COCc2ccc(Cl)c(C(F)(F)F)c2)cc1` [Example 24, (6R)-6-(4-chloro-3-trifluoromethylbenzyloxymethyl)-1-{4-[3-(2-methoxybenzyloxy)-propoxy]-phenyl}-piperazin-2-one] yielded an IC50 of 0.107 µM.

`CCOC(=O)Cn1ccc2ccc(OC[C@H]3CNCC(=O)N3c3ccc(OCCCOCc4ccccc4OC)cc3)cc21` [Example 132, [6-([2R]-1-{4-[3-(2-Methoxybenzyloxy)-propoxy]-phenyl}-6-oxo-piperazin-2-ylmethoxy)-indol-1-yl]-acetic acid ethyl ester] was tested, and the IC50 was 0.006 µM.

For `COCc1ccc(N2CCNC[C@@H]2COc2ccc3ccccc3c2)cc1` [Example 99, (2R)-1-(4-methoxymethylphenyl)-2-(naphthalene-2-yloxymethyl)-piperazine], the IC50 was over 1 µM.

Work on `COc1ccccc1CCOCCOc1ccc(N2CCNC[C@@H]2COc2ccc3ccccc3c2)cc1` [Example 104] yielded an IC50 of 1.07 µM.

`COc1ccccc1COCCCOc1ccc(N2CCNC[C@@H]2COc2ccc3c(c2)N(CCNC(C)=O)CCC3)cc1` [Example 125, N-{2-[7-([2R]-1-{4-[3-(2-Methoxybenzyloxy)-propoxy]-phenyl}-piperazin-2-ylmethoxy)-3,4-dihydro-2H-quinolin-1-yl]-ethyl}-acetamide] showed an IC50 of 0.00053 µM.

`COc1ccccc1COCCCOc1ccc(N2C(=O)CNC[C@@H]2COCc2cc(F)cc(F)c2)cc1` [Example 11, (6R)-6-(3,5-difluorobenzyloxymethyl)-1-{4-[3-(2-methoxybenzyloxy)-propoxy]-phenyl}-piperazin-2-one] was tested, and the IC50 was 1.57 µM.

With `COc1ccccc1COCCCOc1ccc(N2C(=O)CNC[C@@H]2COc2ccc(-c3ccccc3)cc2)cc1` [Example 92, (6R)-6-(biphenyl-4-yloxymethyl)-1-(4-[3-(2-methoxybenzyloxy)-propoxy]-phenyl)-piperazin-2-one] the IC50 was 2.52 µM.

With `COc1ccccc1COCCCOc1ccc(N2C(=O)CNC[C@@H]2COCc2ccc(Br)cc2)cc1` [Example 30, (6R)-6-(4-bromobenzyloxymethyl)-1-{4-[3-(2-methoxybenzyloxy)-propoxy]-phenyl}-piperazin-2-one] the IC50 was over 1 µM.

`COc1ccccc1COCCCOc1ccc(N2C(=O)CNC[C@@H]2COC(=O)c2ccccc2)cc1` [Example 61, benzoic acid (2R)-1-{4-[3-(2-methoxybenzyloxy)-propoxy]-phenyl}-6-oxopiperazin-2-yl methyl ester] gave an IC50 of over 1 µM.
